The values below come from patent US7479483B2, “Tumor-targeted drug delivery systems and uses thereof” (G. Gaslini Children's Hospital, priority 2003, dated 2009).

SMILES strings stand for the structures.

This experiment deals with SH-SY5Y adrenal tumors. As to the kind of experiment: In vivo therapeutic studies, orthotopic neuroblastoma xenograft. Details: species or system SCID mice. To be noted: orthotopic SH-SY5Y model; free DXR by standard or metronomic dosing.

Experimental: Five-week-old female SCID mice were purchased from Harlan Laboratories (Harlan Italy-S. Pietro al Natisone, UD). Mice (6-8 mice/group) were anaesthetised and injected with the different NB cell lines (2.5×10^6 cells in 20 μl of HEPES buffer), after laparatomy, in the capsule of the left adrenal gland. […] Mice were monitored at least two times weekly for evidence of tumor development, tumor size was quantified, and evidence of tumor-associated morbidity was noted.
2.5×10^6 SH-SY5Y cells were injected orthotopically in the left adrenal gland of mice. […] At various time-points, mice were sacrificed and tumors were measured with calipers. Tumor volumes were calculated by the formula π/6 [w1× (w2)^2], where w1 represented the largest tumor diameter and w2 represented the smallest tumor diameter. The body weight and general physical status of the animals were recorded daily and the mice were terminated when tumor reached 1000-1200 mm^3. […] Weight due to tumor burden was calculated by subtracting the normal wet organ weight from each tumor-bearing organ. In some experiments, mice were monitored routinely for weight loss, and survival times were used as the main criterion for determining treatment efficacy.
The statistical significance of differential findings between experimental groups and controls was determined by Student's t-test and considered significant if two-tailed P values were <0.05. […]

Turning to `COc1cccc2c1C(=O)c1c(O)c3c(c(O)c1C2=O)C[C@@](O)(C(=O)CO)C[C@@H]3O[C@H]1C[C@H](N)[C@H](O)[C@H](C)O1` [free DXR, doxorubicin], the therapeutic effect result is “lack of therapeutic effect”.
